Assay results taken from article PMC3997336 (PLoS ONE, 2014).

Biological target: T1, MKK7 (Homo sapiens, UniProt O14733)
T1 construct: gene MAP2K7
Assay: biochemical

T1 sequence (O14733 2-419): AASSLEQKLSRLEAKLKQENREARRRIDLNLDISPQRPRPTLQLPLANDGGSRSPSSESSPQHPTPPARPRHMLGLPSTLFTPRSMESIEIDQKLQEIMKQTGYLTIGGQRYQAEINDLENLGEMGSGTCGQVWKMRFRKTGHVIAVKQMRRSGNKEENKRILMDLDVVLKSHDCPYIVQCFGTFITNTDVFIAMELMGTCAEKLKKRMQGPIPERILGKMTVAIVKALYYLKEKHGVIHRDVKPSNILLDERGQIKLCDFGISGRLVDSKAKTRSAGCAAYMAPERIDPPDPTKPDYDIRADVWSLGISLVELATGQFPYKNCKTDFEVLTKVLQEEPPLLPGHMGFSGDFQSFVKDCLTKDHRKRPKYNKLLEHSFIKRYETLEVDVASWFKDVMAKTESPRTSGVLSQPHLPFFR

Work on `COc1ccc2c(Cc3ccc(O[Si](C)(C)C(C)(C)C)cc3)c3[n+](cc2c1OC)CCc1cc2c(cc1-3)OCO2` [HWY336] yielded an IC50 of 10 µM.
